In patent publication US10744128B2, “6-(5-membered heteroaryl)isoquinolin-3-yl-(5-membered heteroaryl) carboxamides and preparation and use thereof” (Samumed, LLC, priority 2017, dated 2020):
Like-named read-outs stand apart in the source and are kept apart here.

How the values were obtained:
[1] = tested on: Wnt-responsive promoter (Sp5-Luc reporter) in SW480 colon carcinoma cells; experiment: Sp5-Luc reporter gene screening assay for Wnt activity in SW480 cells; type: cell-based, human; conditions: 36 to 48 hours, luminescence
From the text: The screening assay for Wnt activity is described as follows. Reporter cell lines can be generated by stably transducing cancer cell lines (e.g., colon cancer) or primary cells (e.g., IEC-6 intestinal cells) with a lentiviral construct that includes a Wnt-responsive promoter driving expression of the firefly luciferase gene.
SW480 colon carcinoma cells were transduced with a lentiviral vector expressing luciferase with a human Sp5 promoter consisting of a sequence of eight TCF/LEF binding sites. SW480 cells stably expressing the Sp5-Luc reporter gene and a hygromycin resistance gene were selected by treatment with 150 μg/mL of hygromycin for 7 days. These stably transduced SW480 cells were expanded in cell culture and used for all further screening activities. […] For Sp5-Luc reporter gene assays, the cells were plated at 4,000 cells/well in 384-well plates with a DMEM medium containing 1% fetal bovine serum, and 1% Penicillin-Streptomycin and incubated for 36 to 48 hours at 37° C. and 5% CO2. Following incubation, 15 μl of BriteLite Plus luminescence reagent (Perkin Elmer) was added to each well of the 384-well assay plates. The plates were placed on an orbital shaker for 2 min and then luminescence was quantified using the Envision (Perkin Elmer) plate reader. Readings were normalized to DMSO only treated cells, and normalized activities were utilized for EC50 calculations using the dose-response log (inhibitor) vs. response −variable slope (four parameters) nonlinear regression feature available in GraphPad Prism 5.0 (or Dotmatics).

[2] = biological target: recombinant GSK3β kinase (Homo sapiens (Human), UniProt P49841); experiment: GSK3β kinase assay (Ser/Thr 09 peptide Z-lyte, FRET); type: biochemical
Chain of recombinant GSK3β kinase (P49841 whole entry): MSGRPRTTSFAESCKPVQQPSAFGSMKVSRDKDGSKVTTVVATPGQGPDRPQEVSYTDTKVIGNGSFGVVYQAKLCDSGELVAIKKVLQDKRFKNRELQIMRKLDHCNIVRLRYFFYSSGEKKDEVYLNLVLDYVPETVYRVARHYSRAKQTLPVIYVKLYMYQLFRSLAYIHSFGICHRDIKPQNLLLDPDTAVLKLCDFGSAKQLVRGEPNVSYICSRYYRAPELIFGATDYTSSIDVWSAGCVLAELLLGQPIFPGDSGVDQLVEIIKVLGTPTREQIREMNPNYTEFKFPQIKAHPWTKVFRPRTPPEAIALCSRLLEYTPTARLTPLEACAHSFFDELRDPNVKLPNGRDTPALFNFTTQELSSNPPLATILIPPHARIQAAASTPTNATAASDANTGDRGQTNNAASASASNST

[3] = tested on: SW480 colon carcinoma cells; experiment: Cell viability assay (CellTiter-Glo) in SW480 cells; type: cell-based, human; conditions: four days
Protocol: SW480 colon carcinoma cells were transduced with a lentiviral vector expressing luciferase with a human Sp5 promoter consisting of a sequence of eight TCF/LEF binding sites. SW480 cells stably expressing the Sp5-Luc reporter gene and a hygromycin resistance gene were selected by treatment with 150 µg/mL of hygromycin for 7 days. These stably transduced SW480 cells were expanded in cell culture and used for all further screening activities.
For the Cell Viability Assays, the cells were plated at 2,000 cells/well in 384-well plates with a DMEM medium containing 1% fetal bovine serum, and 1% Penicillin-Streptomycin and incubated for […] at 37° C. and 5% CO2. Eight replicates of DMSO-treated cells served as controls and cells treated with compound were performed in duplicate.
After incubation, 10 μL of CellTiter-Glo (Promega) was added to each well allowed to incubate for approximately 12 minutes. This reagent “results in cell lysis and generation of a luminescent signal proportional to the amount of ATP present. The amount of ATP is directly proportional to the number of cells present in culture, in agreement with previous reports. The CellTiter-Glo® Assay generates a “glow-type” luminescent signal, produced by the luciferase reaction (Promega.com)”.

[4] = tested on: primary human fibroblasts derived from IPF patients (LL29 cells), α-smooth muscle actin; experiment: Inhibition of fibrotic process: αSMA in TGF-β1 treated LL29 fibroblasts; type: cell-based; conditions: for EC50: LL29 cells, TGF-β1 20 ng/mL, 4 days, % cells positive for αSMA
Protocol: Representative compounds were screened using primary human fibroblasts (derived from IPF patients) treated with TGF-β1 to determine their ability to inhibit the fibrotic process.
LL29 cells were plated at 1,500 cells/well in 70 μL/well F12 medium supplemented with 1% Fetal Bovine Serum. […] Wells treated with TGF-β1 and containing DMSO were used as positive control, and cells with only DMSO were negative control. […] Following incubation for 4 days, SYTOX green nucleic acid stain (Life Technologies [Thermo Fisher Scientific]) was added to the wells at a final concentration of 1 μM and incubated at room temperature for 30 min.

[5] = tested on: IL-6; experiment: IL-6 inhibition in LPS-stimulated human peripheral blood mononuclear cells (HTRF); type: cell-based; conditions: for EC50: huPBMCs, LPS 50 ng/mL, 22 hours, IL-6 HTRF; for inhibition at 10 µM: read-out: percent inhibition at 10 μM
Protocol: Fresh Normal PB MNC (Catalog # PB001, AllCells, Alameda, Calif.) were shipped overnight at 4° C. and resuspended in Roswell Park Memorial Institute (RPMI) 1640 Medium, with GlutaMAX Supplement (Catalog #61870127, ThermoFisher Scientific, Waltham, Mass.) supplemented with 1% Penicillin-Streptomycin (Catalog #15140163, ThermoFisher Scientific, Waltham, Mass.) and 1% fetal bovine serum (FBS) (Catalog #16140089, ThermoFisher Scientific, Waltham, Mass.) assay media.
Fresh normal human peripheral blood mononuclear cells (huPBMCs) were resuspended in 1% FBS-RPMI assay media with 1% Penicillin-Streptomycin 1% to a cell concentration of 1×10e6 cells/mL. […] 50 ng/mL of Lipopolysaccharides from Escherichia coli 0111:B4 (Catalog #L5293-2ML, Sigma-Aldrich, St. Louis, Mo.) was added after 2 hours and cells were incubated for another 22 hours at 37° C.-5% CO2. After 22 hour incubation, a mixture of anti-IL6 XL665 and anti-IL-6 Cryptate diluted in reconstitution buffer (Catalog #62IL6PEC, Cisbio Inc., Bedford, Mass.) was added to each well. Following incubation for 3 hours at room temperature, Homogeneous Time-Resolved Fluorescence (HTRF) was measured using the Envision (Perkin Elmer, Shelton, Conn.) at 665 nm and […]. The ratio of fluorescence at 665 nm to 620 nm was used as a readout for IL-6 quantification. All samples were processed in duplicate. Readings were normalized to DMSO treated cells and normalized activities were utilized for EC50 calculations. EC50 was determined using software generated by Dotmatics Limited (Windhill Bishops Stortford Herts, UK) using the Levenberg-Marquardt 4 parameter fitting procedure with finite different gradients.

[6] = biological target: recombinant DYRK1A kinase (Homo sapiens (Human), UniProt Q13627); experiment: DYRK1A kinase assay (Ser/Thr 18 peptide Z-lyte, FRET)
[7] = GSK3β kinase, 46 μM ATP, one hour, method calls values IC50
[8] = DYRK1A kinase, 30 μM ATP, one hour, method calls values IC50

Compound | EC50 [1] [nM] | EC50 [2, 7] [nM] | EC50 [3] [nM] | EC50 [5] [nM] | EC50 [6, 8] [nM] | EC50 ([1]; Homo sapiens) [nM] | EC50 ([3]; Homo sapiens, 96 h) [nM] | EC50 ([5]; Homo sapiens, PBMC) [nM] | EC50 [2] [nM] | EC50 [6] [nM] | EC50 [4] [nM] | EC50 ([4]; Homo sapiens, Fibroblast, 96 h) [nM] | inhibition at 10 µM ([4]; Homo sapiens, Fibroblast, read-out: percent inhibition at 10 μM) [%] | inhibition at 10 µM ([5]; Homo sapiens, PBMC) [%]
2-(1-Isopropylpiperidin-4-yl)-N-(6-(1-methyl-1H-pyrazol-4-yl)isoquinolin-3-yl)thiazole-4-carboxamide [Compound 39] | 70 | 3710 | 1190 | 7590 | 26 |  |  |  |  |  | 3040 |  |  | 
[2H]C([2H])([2H])n1cc(-c2ccc3cnc(NC(=O)c4cnn(C5CCNCC5)c4)cc3c2)cn1 [Compound 3, N-(6-(1-(Methyl-d3)-1H-pyrazol-4-yl)isoquinolin-3-yl)-1-(piperidin-4-yl)-1H-pyrazole-4-carboxamide] |  |  |  |  |  | 23 | 38 | 1040 | > 10000 | 3 |  | 74 |  | 
[2H]C([2H])([2H])n1cc(-c2ccc3cnc(NC(=O)c4cnn(C5CCN(C)CC5)c4)cc3c2)cn1 [Compound 5, N-(6-(1-(Methyl-d3)-1H-pyrazol-4-yl)isoquinolin-3-yl)-1-(1-methylpiperidin-4-yl)-1H-pyrazole-4-carboxamide] |  |  |  |  |  | 22 | 34 | 218 | 2060 | 2 |  | 84 |  | 
CCN1CCC(n2cc(C(=O)Nc3cc4cc(-c5cnn(C)c5)ccc4cn3)cn2)CC1 [Compound 6, 1-(1-Ethylpiperidin-4-yl)-N-(6-(1-methyl-1H-pyrazol-4-yl)isoquinolin-3-yl)-1H-pyrazole-4-carboxamide] |  | 1700 |  |  | 3 | 15 | 32 | 129 |  |  |  | 69 |  | 
Cn1cc(-c2ccc3cnc(NC(=O)c4cnn(C5CCN(CCF)CC5)c4)cc3c2)cn1 [Compound 7, 1-(1-(2-Fluoroethyl)piperidin-4-yl)-N-(6-(1-methyl-1H-pyrazol-4-yl)isoquinolin-3-yl)-1H-pyrazole-4-carboxamide] |  | 1500 |  |  | 3 | 35 | 77 | 145 |  |  |  | 47 |  | 
Cn1cc(-c2ccc3cnc(NC(=O)c4cnn(C5CCN(C6CC6)CC5)c4)cc3c2)cn1 [Compound 9, 1-(1-cyclopropylpiperidin-4-yl)-N-(6-(1-methyl-1H-pyrazol-4-yl)isoquinolin-3-yl)-1H-pyrazole-4-carboxamide] |  | 1660 |  |  | 2 | 39 | 104 | 1100 |  |  |  | > 10000 | 33.4 | 
Cn1cc(-c2ccc3cnc(NC(=O)c4cn(C5CCNCC5)nn4)cc3c2)cn1 [Compound 11, N-(6-(1-Methyl-1H-pyrazol-4-yl)isoquinolin-3-yl)-1-(piperidin-4-yl)-1H-1,2,3-triazole-4-carboxamide] |  | 9990 |  |  | 7 |  | 273 | 2630 |  |  |  | 607 |  | 
CN1CCC(n2cc(C(=O)Nc3cc4cc(-c5cnn(C)c5)ccc4cn3)nn2)CC1 [Compound 12, N-(6-(1-Methyl-1H-pyrazol-4-yl)isoquinolin-3-yl)-1-(1-methylpiperidin-4-yl)-1H-1,2,3-triazole-4-carboxamide] |  | 3630 |  |  | 9 | 105 | 470 | 3750 |  |  |  | 983 |  | 
CC(C)N1CCC(n2cc(C(=O)Nc3cc4cc(-c5cnn(C)c5)ccc4cn3)nn2)CC1 [Compound 14, 1-(1-Isopropylpiperidin-4-yl)-N-(6-(1-methyl-1H-pyrazol-4-yl)isoquinolin-3-yl)-1H-1,2,3-triazole-4-carboxamide] |  | 2750 |  |  | 6 | 95 | 240 | > 10000 |  |  |  | 410 |  | 46

Continued by falling EC50 ([3]; Homo sapiens, 96 h), values first:

EC50 [1] [nM] | EC50 [2, 7] [nM] | EC50 [3] [nM] | EC50 [5] [nM] | EC50 [6, 8] [nM] | EC50 ([1]; Homo sapiens) [nM] | EC50 ([3]; Homo sapiens, 96 h) [nM] | EC50 ([5]; Homo sapiens, PBMC) [nM] | EC50 [2] [nM] | EC50 [6] [nM] | Compound | EC50 [4] [nM] | EC50 ([4]; Homo sapiens, Fibroblast, 96 h) [nM] | inhibition at 10 µM ([4]; Homo sapiens, Fibroblast, read-out: percent inhibition at 10 μM) [%] | inhibition at 10 µM ([5]; Homo sapiens, PBMC) [%]
 | 1330 |  |  | 16 |  | 1260 | > 10000 |  |  | Cn1cc(-c2ccc3cnc(NC(=O)c4coc(C5CCN(CCF)CC5)n4)cc3c2)cn1 [Compound 21, 2-(1-(2-Fluoroethyl)piperidin-4-yl)-N-(6-(1-methyl-1H-pyrazol-4-yl)isoquinolin-3-yl)oxazole-4-carboxamide] |  | 9620 |  | 27.2
 | 9990 |  |  | 39 | 387 | 608 | 3440 |  |  | CC(C)n1cc(C(=O)Nc2cc3cc(-c4cnn(C5CCN(C)CC5)c4)ccc3cn2)cn1 [Compound 1, 1-Isopropyl-N-(6-(1-(1-methylpiperidin-4-yl)-1H-pyrazol-4-yl)isoquinolin-3-yl)-1H-pyrazole-4-carboxamide] |  | 953 |  | 
 | 2080 |  |  | 5 | 120 | 485 | 3390 |  |  | Cn1cc(-c2ccc3cnc(NC(=O)c4cn(C5CCN(CCF)CC5)nn4)cc3c2)cn1 [Compound 13, 1-(1-(2-Fluoroethyl)piperidin-4-yl)-N-(6-(1-methyl-1H-pyrazol-4-yl)isoquinolin-3-yl)-1H-1,2,3-triazole-4-carboxamide] |  | 260 |  | 
 |  |  |  |  | 115 | 113 | 1070 | 769 | 16 | [2H]C([2H])([2H])n1cc(-c2ccc3cnc(NC(=O)c4coc(C5CCNCC5)n4)cc3c2)cn1 [Compound 16, N-(6-(1-(Methyl-d3)-1H-pyrazol-4-yl)isoquinolin-3-yl)-2-(piperidin-4-yl) oxazole-4-carboxamide] |  | 312 |  | 
 | 1480 |  |  | 2 | 14 | 35 | 89 |  |  | CN1CCC(n2cc(C(=O)Nc3cc4cc(-c5cnn(C)c5)ccc4cn3)cn2)CC1 [Compound 4, N-(6-(1-Methyl-1H-pyrazol-4-yl)isoquinolin-3-yl)-1-(1-methylpiperidin-4-yl)-1H-pyrazole-4-carboxamide] |  | 94 |  | 
